Results as given in the supplement of paper PMC10307832.

What was measured:
Assay in all cases: relative viability (nuclei count vs DMSO), 5 days (fraction); higher = more cells survive
[1] = compound: O=C(Nc1c[nH]nc1-c1nc2ccc(CN3CCOCC3)cc2[nH]1)NC1CC1 [AT9283] + NC(=O)Nc1cc(-c2cccc(F)c2)sc1C(=O)N[C@H]1CCCNC1 [AZD7762] (partner 0.2 µM)
Outline: (§1)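 Each reported value is a median over duplicate plates. It expresses relative viability: treated-well nuclei count divided by vehicle-well nuclei count. Lung cancer cell lines in 1536-well plates were dosed by pin tool a day after seeding, alone with one drug or with a fixed anchor-drug dose plus five library-drug doses (not always all listed) in √10 steps, and nuclei were counted after 5 days.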

[2] = compound: O=C(Nc1c[nH]nc1-c1nc2ccc(CN3CCOCC3)cc2[nH]1)NC1CC1 [AT9283] + CS(=O)(=O)CCNCc1ccc(-c2ccc3ncnc(Nc4ccc(OCc5cccc(F)c5)c(Cl)c4)c3c2)o1 [Lapatinib] (partner 2 µM)
Outline: as §1

[3] = compound: C#Cc1cccc(Nc2ncnc3cc(OCCOC)c(OCCOC)cc23)c1 [Erlotinib] + C[C@]1(O)C[C@@H](c2nc(-c3ccc4ccc(-c5ccccc5)nc4c3)c3c(N)nccn32)C1 [Linsitinib] (partner 1 µM)
Outline: as §1

[4] = compound: O=C(Nc1c[nH]nc1-c1nc2ccc(CN3CCOCC3)cc2[nH]1)NC1CC1 [AT9283] + CC(=O)Nc1cccc(-n2c(=O)n(C3CC3)c(=O)c3c(Nc4ccc(I)cc4F)n(C)c(=O)c(C)c32)c1 [Trametinib] (partner 0.02 µM)
Outline: as §1

[5] = compound: O=C(Nc1c[nH]nc1-c1nc2ccc(CN3CCOCC3)cc2[nH]1)NC1CC1 [AT9283] + Cc1nc(Nc2ncc(C(=O)Nc3c(C)cccc3Cl)s2)cc(N2CCN(CCO)CC2)n1 [Dasatinib] (partner 0.075 µM)
Outline: as §1

Work on NCI-H2405 yielded a relative viability ([1]; first compound 0.003 µM) of 0.771, a relative viability ([1]; first compound 0.03 µM) of 0.566 and a relative viability ([1]; first compound 0.09487 µM) of 0.208. For the same cell line, the relative viability ([1]; first compound 0.3 µM) was 0.163, the relative viability ([2]; first compound 0.003 µM) was 1.15 and the relative viability ([2]; first compound 0.03 µM) was 0.789. For the same cell line, the relative viability ([2]; first compound 0.09487 µM) was 0.295, the relative viability ([2]; first compound 0.3 µM) was 0.198 and the relative viability ([3]; first compound 0.02 µM) was 1.01. The relative viability ([3]; first compound 0.6325 µM) was 0.994, the relative viability ([3]; first compound 2 µM) was 0.768 and the relative viability ([4]; first compound 0.003 µM) was 0.737. For the same cell line, the relative viability ([4]; first compound 0.03 µM) was 0.491, the relative viability ([4]; first compound 0.09487 µM) was 0.296 and the relative viability ([4]; first compound 0.3 µM) was 0.185. The relative viability ([5]; first compound 0.003 µM) was 0.177, the relative viability ([5]; first compound 0.03 µM) was 0.185 and the relative viability ([5]; first compound 0.09487 µM) was 0.132. It also gave a relative viability ([5]; first compound 0.3 µM) of 0.107.
In the case of HCC-78, the relative viability ([1]; first compound 0.003 µM) is reported as 0.593, the relative viability ([1]; first compound 0.03 µM) is reported as 0.44 and the relative viability ([1]; first compound 0.09487 µM) is reported as 0.353. The relative viability ([1]; first compound 0.3 µM) was 0.234, the relative viability ([2]; first compound 0.003 µM) was 0.562 and the relative viability ([2]; first compound 0.03 µM) was 0.587. It also gave a relative viability ([2]; first compound 0.09487 µM) of 0.224, a relative viability ([2]; first compound 0.3 µM) of 0.196 and a relative viability ([3]; first compound 0.02 µM) of 0.5. For the same cell line, the relative viability ([3]; first compound 0.2 µM) was 0.439, the relative viability ([3]; first compound 0.6325 µM) was 0.401 and the relative viability ([3]; first compound 2 µM) was 0.383. For the same cell line, the relative viability ([4]; first compound 0.003 µM) was 0.794, the relative viability ([4]; first compound 0.03 µM) was 0.745 and the relative viability ([4]; first compound 0.09487 µM) was 0.353. For the same cell line, the relative viability ([4]; first compound 0.3 µM) was 0.222, the relative viability ([5]; first compound 0.003 µM) was 0.291 and the relative viability ([5]; first compound 0.03 µM) was 0.322. It also gave a relative viability ([5]; first compound 0.09487 µM) of 0.201 and a relative viability ([5]; first compound 0.3 µM) of 0.216.
RERF-LC-KJ gave a relative viability ([1]; first compound 0.003 µM) of 0.836, a relative viability ([1]; first compound 0.03 µM) of 0.578 and a relative viability ([1]; first compound 0.09487 µM) of 0.387. For the same cell line, the relative viability ([1]; first compound 0.3 µM) was 0.243, the relative viability ([2]; first compound 0.003 µM) was 0.809 and the relative viability ([2]; first compound 0.03 µM) was 0.516. It also gave a relative viability ([2]; first compound 0.09487 µM) of 0.256, a relative viability ([2]; first compound 0.3 µM) of 0.191 and a relative viability ([3]; first compound 0.02 µM) of 0.914. It also gave a relative viability ([3]; first compound 0.2 µM) of 0.837, a relative viability ([3]; first compound 0.6325 µM) of 0.736 and a relative viability ([3]; first compound 2 µM) of 0.565. The relative viability ([4]; first compound 0.003 µM) was 0.877, the relative viability ([4]; first compound 0.03 µM) was 0.691 and the relative viability ([4]; first compound 0.09487 µM) was 0.412. For the same cell line, the relative viability ([4]; first compound 0.3 µM) was 0.251, the relative viability ([5]; first compound 0.003 µM) was 0.864 and the relative viability ([5]; first compound 0.03 µM) was 0.391. For the same cell line, the relative viability ([5]; first compound 0.09487 µM) was 0.212 and the relative viability ([5]; first compound 0.3 µM) was 0.188.
NCI-H1915 showed a relative viability ([1]; first compound 0.003 µM) of 0.617, a relative viability ([1]; first compound 0.03 µM) of 0.548 and a relative viability ([1]; first compound 0.09487 µM) of 0.334. The relative viability ([1]; first compound 0.3 µM) was 0.222, the relative viability ([2]; first compound 0.003 µM) was 0.885 and the relative viability ([2]; first compound 0.03 µM) was 0.931. It also gave a relative viability ([2]; first compound 0.09487 µM) of 0.477, a relative viability ([2]; first compound 0.3 µM) of 0.217 and a relative viability ([3]; first compound 0.02 µM) of 1.15. The relative viability ([3]; first compound 0.2 µM) was 1.17, the relative viability ([3]; first compound 0.6325 µM) was 1.1 and the relative viability ([3]; first compound 2 µM) was 1.08. For the same cell line, the relative viability ([4]; first compound 0.003 µM) was 0.3, the relative viability ([4]; first compound 0.03 µM) was 0.31 and the relative viability ([4]; first compound 0.09487 µM) was 0.225. It also gave a relative viability ([4]; first compound 0.3 µM) of 0.132, a relative viability ([5]; first compound 0.003 µM) of 0.276 and a relative viability ([5]; first compound 0.03 µM) of 0.289. It also gave a relative viability ([5]; first compound 0.09487 µM) of 0.141 and a relative viability ([5]; first compound 0.3 µM) of 0.141.
